Each structure is given as a SMILES string. Several values for one entry are separate records, joined by “and”; a condition that tells them apart may be missing. Identical values can stand only once. Marks after values point to notes of the source that are not given here.

The experiment deals with E. coli AID#172. The experiment can be described thus: Neutropenic murine peritonitis/sepsis model, dose-response and estimation of ED50 (Example 2). Type of experiment: in vivo, Escherichia coli. Set-up: key to Clinical score T = 0 hour / Clinical score T = 5 hours: Score 0: Healthy.; Score 1: Minor clinical signs of infection and inflammation e.g. observations of minor signs of distress or changed activity.; Score 2: Clear signs of infection like, social withdrawal, lack of curiosity, changed body position, piloerection, or changes in pattern of movement.; Score 3: Severe signs of infection like stiff movements, lack of curiosity, changed body position, piloerection, pain, or changes in pattern of movement.; Score 4: Severe pain and the mouse was sacrificed immediately to minimize the suffering of the animal.; Score 5: The mouse was dead. On the procedure: The purpose of this study was to investigate the dose-response relationship following intravenous (i.v.) administration of a single dose of NZ17074 ranging from 0.16-12 mg/kg. The effect was tested against E. coli AID#172 in the neutropenic peritonitis model. Treatment with 40 mg/kg meropenem was included as a positive control group. The colony counts in blood and peritoneal fluid were determined at 5 hours after treatment.
The murine peritonitis/sepsis model is a well-recognized model for studies of antimicrobial activity as described by N. Frimodt-Møller and J. D. Knudsen in Handbook of Animal Models of Infection (1999), ed. by O. Zak & M. A. Sande, Academic Press, San Diego, US.
• 30 outbred, NMRI female mice, 25-30 grams (Harlan Scandinavia) • E. coli AID#172 from Statens Serum Institute, Copenhagen, Denmark. Clinical isolate from a human wound from 2003. Multiresistant (Ampicillin, Ceftazidime, Aztreonam, Gentamicin, Ciprofloxacin) • NZ17074 in Ringer Acetate, pH 6: 1.2 mg/ml, 6.0 ml. The solution was stored at 4° C. until use. Analyses of the dose formulations used were performed after completion of the in-life phase of the study and gave the following results:
The mice were rendered neutropenic by injecting 0.5 ml cyclophosphamide solution intraperitoneally 4 days (200 mg/kg) and 1 day (100 mg/kg) prior to inoculation.
Fresh overnight E. coli AID#172 colonies from a 5% Horse Blood Agar plate were suspended and diluted in sterile saline to approximately 2×10^6 CFU/ml. One hour before start of treatment (time −1 hr) mice were inoculated intraperitoneally with 0.5 ml of the E. coli suspension in the lateral lower quadrant of the abdomen. Approximately ½-1 hour after treatment, mice were treated orally with 45 microliters neurophen (20 mg ibuprofen/ml corresponding to 30 mg/kg) as a pain relief.
The mice were treated i.v. in the lateral tail vein over approximately 30 seconds with 10 ml/kg with a single dose of NZ17074, meropenem or vehicle at time 0 hour (see Table 1). The dosing was based on a mean weight of 30 g. Mice that weighed 28-32 g received 0.30 ml solution. Mice that weighed 27-28 g received 0.25 ml solution and mice that weighed 32.1-36 g received 0.35 ml solution.
The mice were observed during the study and scored 0-5 based on their behaviour and clinical signs. • Score 0: Healthy. • Score 1: Minor clinical signs of infection and inflammation e.g. observations of minor signs of distress or changed activity. • Score 2: Clear signs of infection like, social withdrawal, lack of curiosity, changed body position, piloerection, or changes in pattern of movement. • Score 3: Severe signs of infection like stiff movements, lack of curiosity, changed body position, piloerection, pain, or changes in pattern of movement. • Score 4: Severe pain and the mouse was sacrificed immediately to minimize the suffering of the animal. • Score 5: The mouse was dead.
Colony counts were determined from blood and peritoneal fluid at 0 and 5 hours. The mice were anaesthetized with CO2+O2 and blood was collected from axillary cutdown in 1.5 ml EDTA coated eppendorf tubes. The mice were sacrificed immediately after blood sampling and a total of 2 ml sterile saline was injected i.p. and the abdomen gently massaged before it was opened and fluid sampled with a pipette. Each sample was then 10 fold diluted in saline and 20-microliter spots were applied on blue agar plates. All agar plates were incubated 18-22 hours at 35° C. in ambient air.
The colony counts were performed at the start of treatment and 5 hours after treatment. The CFU numbers are log10 transformed before performing calculations.

For the molecule `C[C@@H](O)[C@H]1C(=O)N2C(C(=O)O)=C(S[C@@H]3CN[C@H](C(=O)N(C)C)C3)[C@H](C)[C@H]12` [meropenem], the “CFU levels in blood and peritoneal fluid compared to vehicle” value (40 mg/kg i.v., 5 hours, blood p<0.05, peritoneal fluid p<0.01) was “significant reduction”. In addition, the “Clinical score T = 0 hour” value (Meropenem 40 mg/kg single dose group, score at start of treatment, individual mice) is recorded as 1. In addition, the “log10 CFU Mean Blood” value (Meropenem 40 mg/kg single dose, blood, T = 5, group mean, p < 0.05 vs vehicle) was 2.38* log10 CFU/ml. Besides, the “log10 CFU Blood” value (Meropenem 40 mg/kg single dose, blood, T = 5, individual mice) was 2.48 log10 CFU/ml and 1.70 log10 CFU/ml and 2.95 log10 CFU/ml. Besides, where the note is “Meropenem 40 mg/kg single dose, individual mice”, the “Clinical score T = 5 hours” value is 1 (2×) and 0. Moreover, the “log10 CFU mean PF” value (Meropenem 40 mg/kg single dose, peritoneal fluid, T = 5, group mean, p < 0.01 vs vehicle) is 2.64** log10 CFU/ml. Moreover, the “log10 CFU PF” value (Meropenem 40 mg/kg single dose, peritoneal fluid, T = 5, individual mice) was 3.92 log10 CFU/ml and 1.70 log10 CFU/ml and 2.30 log10 CFU/ml.

The record behind these values is patent US20160158317A1, “Antimicrobial Peptide Variants and Polynucleotides Encoding Same” (Adenium Biotech A/S, priority 2010, published 2016).
